Source: patent US8119667B2, “Carbonates of fenicol antibiotics” (Schering-Plough Animal Health Corporation, priority 2005, dated 2012)

Legend:
[1] = Syringeability of dosing solutions (dripping-syringe method); assay type: physicochemical
Procedure: Table 4, below, provides evaluations of the syringeability of dosing solutions of selected florfenicol benzylic carbonate prodrugs at concentrations equivalent to 300 mg/ml florfenicol (30% weight/volume).
High concentrations of fenicol or fenicol drug contained in a fenicol prodrug are often necessary for convenient administration of the necessary amount of the desired amount of the antibiotic. Due to the limited solubility of fenicols in many organic solvents or mixtures of solvents acceptable for injectable formulations the choice of solvents for preparation of highly concentrated florfenicol solutions is limited. As a result highly concentrated solutions of fenicol drugs in organic solvents or solvent mixtures may become highly viscous and difficult to administer by a syringe. Therefore the ability of fenicol benzylic carbonate prodrugs to dissolve in a wider range of organic solvents or mixtures of solvents acceptable for injectable formulations offered the potential to prepare highly concentrated solutions for injections with lower viscosity. […] Test solutions of florfenicol benzylic carbonates containing concentrations of florfenicol (mg/mL) equivalent to the concentration present in Nuflor® formulation were prepared. Syringeabilities of the solutions were evaluated by means of the “dripping syringe” method in which the dripping times (sec) of equal volumes of such solutions under free gravitational flow conditions from a vertically positioned syringe were measured at 15° C. After removing the plunger from a 5 ml polyethylene disposable syringe (5 ml Luer, Norm-Ject Zentrish/Henke Saas Wolf GMBH) and fitting the syringe with a disposable needle (B-D® 16G1 Precision Glide/BentonDickinson & CO) the test solutions were loaded from the top into the syringe and the time necessary for the free flow of 2 mL of solution (between 3 ml and 1 ml marks) was recorded in triplicate. The syringeabilities relative to Nuflor® were calculated by dividing the dripping time for the test solutions (entries 1-12) by the dripping time measured for the commercial sample of Nuflor® formulation (entry 13) As it is evident from the results in Table 4 the syringeabilities of tested solutions containing benzyl alcohol as viscosity diluent had relative syringeabilities <1.00 and were therefore better than Nuflor® (30% weight/volume florfenicol solution in propylene glycol/polyethylene glycol 300/2-methyl pyrolidinone). Due to their better syringeability these solutions represent more favorable formulations for injectable delivery of florfenicol. Solution of the florfenicol benzylic carbonate of the example 2 in triacetin/2-pyrolidinone—1/1 lacking the benzyl alcohol viscosity diluent was the only solution with syringeability poorer that than that of Nuflor® (entry 5).

[2] = In vivo release of florfenicol: plasma levels after prodrug administration to rats; parameters: species or system Rat; settings: IV
Procedure: The pharmacokinetic profile of active antibiotic after prodrug administration, in vivo, was determined, as follows: • 1. In vivo release of active antibiotic confirmed in two different animal species: • The prodrug compound of Example 18 was administered by an intravenous (“IV”) route to rat and cattle subjects, followed by determination of florfenicol concentrations in the plasma collected over time. • The data of Table 8, below, illustrates the plasma levels of florfenicol that resulted following IV administration of the prodrug compound of Example 18, to both rat and cattle. • 4. Time of release of active moiety: • a.

[3] = 358 mg/ml, 2-pyrolidinone/benzyl alcohol - 1:1, 15° C.
[4] = 358 mg/ml, Triacetin/2-pyrolidinone - 1:1, 15° C.
[5] = 358 mg/ml, Triacetin/benzyl alcohol - 2:1.5, 15° C.

## CCOC(=O)O[C@H](c1ccc(S(C)(=O)=O)cc1)[C@@H](CF)NC(=O)C(Cl)Cl [Example 2, (1R,2S)-2-(2,2-dichloroacetamido)-3-fluoro-1-(4-(methylsulfonyl)phenyl)propyl ethyl carbonate]
[1]; [3]
  Syringeability measurement: Dripping time: 108 ± 1 s
  Syringeability measurement: Relative to NUFLOR: 0.46
[1]; [4]
  Syringeability measurement: Dripping time: 268 ± 4 s
  Syringeability measurement: Relative to NUFLOR: 1.15
[1]; [5]
  Syringeability measurement: Dripping time: 97 ± 1 s
  Syringeability measurement: Relative to NUFLOR: 0.42
[1]; prodrug concentration equivalent to 300 mg/ml florfenicol, Triacetin/benzyl alcohol - 2:1 (vol/vol), 15° C.
  Syringeability measurement: Relative to NUFLOR: 0.55
[1]; prodrug concentration equivalent to 300 mg/ml florfenicol, Triacetin/benzyl alcohol - 2:1 (vol/vol), free flow of 2 mL at 15° C.
  Syringeability measurement: Dripping time: 128 ± 7 s
other
  melting point: 110 to 112 °C
[2]
  time of release of active antibiotic (florfenicol) after administration: less than half an hour
